Where a SMILES comes first, the peptide text is derived from it. Where no end group is shown, it is not given here. The star is where a group is joined. 5FAM = O=C1OC2(c3ccc(O)cc3Oc3cc(O)ccc32)c2ccc(C(=O)*)cc21
Columns and labels:
MBP-MroD = MBP-MroD (Micromonospora rosaria, UniProt A0A136PPB2); test: biochemical
Excerpt: Experiments were done in triplicates. Stock
(1 picture or pasted object on this page, not shown here)

MroB = conditions: read-out: IC50 MroB; SEM
Procedure: Competition fluorescence polarization. The initial sample contained 80 nM enzyme, 5 nM labeled ∆12M r oA1
peptide, and competitor peptide (concentration is from 20 µM to 100 µM, depending on the experiment). In a bl a ck
subsequent wells containing 80 nM MBP-MroB and 5nM labeled ∆12MroA1. The plate was covered from light and
(§1) incubated at room temperat ur e for 10 min, and then fluorescence polarization was measured (Biotek Synergy H4
hybrid reader) using the following filter (Ex: Em – 485 nm / 20 nm: 51 8 nm / 20 nm ). The obtained data was converted
(§2) to anisotropy value and plotted against peptide concentration, and fitted to dose-response function:
Where: y = anisotropy value, A1 = minimum anisotropy, A2 = maximum anisotropy, p = Hill’s coefficient, x =
competitor concentration. The obtained IC50 was used to calculate inhibitor constant K I using the following equation: 12 𝐾𝐾𝐾𝐾 = 𝐼𝐼𝐼𝐼50)− 𝐾𝐾𝐾𝐾 ( 𝑦𝑦𝑦𝑦 + 2)
(§3) Where: Lt is labeled peptide concentration, y = initial bound/free r at i o of the labeled peptide before adding competitor,
and Kd is the binding constant.
(§4) In cases where competitor concentration wa s not high enough to achieve a plateau, the competition curve was fitted
with minimum anisotropy fixed to be the same value as the anisotropy value of t he free probe solution. This calculation […]
Competitive fluorescence polarization […]

MroD = MroD (Micromonospora rosaria, UniProt A0A136PPB2); conditions: read-out: IC50 MroD; SEM
Procedure: Competition fluorescence polarization.
peptide, and competitor peptide (concentration is from 20 µM to 100 µM, depending on the experiment).
subsequent wells containing 80 nM MBP-MroB and 5nM labeled ∆12MroA1.
as §1
hybrid reader) using the following filter (Ex: Em – 485 nm / 20 nm: 51 8 nm / 20 nm ).
as §2
competitor concentration.
as §3
and Kd is the binding constant.
as §4
with minimum anisotropy fixed to be the same value as the anisotropy value of t he free probe solution.
assumed that the labeled peptide was completely displaced from the enzyme binding pocket at a very high
concentration of the competitor.
The specific minimum anisotropy used in this experiment for both MroB and MroD wa s 65.
traces of MroA1 variants binding to MroB.
These peptides were titrated against MBP-MroD (80 nM) complexed with f luorescein-∆12MroA1 (5 nM).
standard deviation (n=3). Errors on Ki and IC50 values are the standard error of the mean generated through regr essi on
polarization traces of MroA1 variants binding to M BP -MroD.
∆12MroA1(5 nM ) . Error bars represent standard deviation (n=3). Errors on Ki a nd IC50 values are the standard error
of the mean generated through regression analysis.

MroB/C = MroB/C dehydration (Dha formation) of in vitro translated MroA2 variants, MALDI-TOF-MS; format: biochemical, Micromonospora rosaria; conditions: Table S6, MroA2 multi-site variants, 2 μM MBP-MroB, 2 μM MBP-MroC, 1 h room temperature
Procedure: in 2 mM NaOAc pH 5.2, and the concentration was assayed using 260 nm absorbance. This tRNA Glu (CUC) was t he n used in the MroBC-catalyzed dehydration assay.
In vitro translation and enzymati c as s ays (dehydration and cyclization). In a 0.65 mL protein low-binding Eppendorf tube placed on ice, 0.75 μL of purified mroA variant template DNA was mixed with 0.75 μL of Solution B and 1 μL of Solution A of PURExpress I n vi t ro Protein Synthesis Kit (E6800L) purchased from NEB (total volume of reaction is 2.5 μL ). The translation reactions were performed at 37°C for 1 hon an aluminum block.
For a full MroBCD substrate scope investigation, a total translation volume for each variant of 7.5 μL was performed.
1.5 μL of 90 mM i odoacet am i de (IAA) was added to quench d ithiothreitol (DTT) in the translation reaction mixture, a thiol -based nucleophile that can react with electrophilic dehydroalanines generated from MroBC-cat al yzed dehydration assays. […]
In the 6 μL part, 10.2 μL of the enzyme mix containing enzymes and cofactors was added along with 1.8 μ L 90 mM ATP (pH 7.5) ,which wasused to initiate the reaction . The enzyme mix was made by adding these components in the following order: HEPES pH 7.5, MgCl2, glutamate, T. bispora tRNAGl u(CUC), thermostable inorganic pyrophosphatase (TIPP), TEV (L56V/S135G/S219V) (w/w ratio with a total amount of MBP-tagged protein = 1: 10), MBP-MroB, MBP-MroC, and T. bispora GluRS. The enzyme mix was incubated 25 min at room temper at ure before adding to the translation product to facilitate in situ TEV -catalyzed cleavage of MBP from MBP -MroB and MBP - MroC. The enzymatic reaction proceeded for 1 h at room temperature. Overal l , the concentration of components in the 18 μL reaction mix is as follows : 50 mM HEPES pH 7.5, 5 mM MgCl2, gl utamate 1 mM, 3 μM T. bi s por a tRNAGlu, 1 μM T. bispora GluRS, 2 μM MBP-MroB, 2 μM MBP-MroC, […], 0.027 U/μL TIPP, and 5 mM IAA. In addition, the […] was incubated with the same buffer lacking enzymes and tRNA as a translation control.
After incubation, the enzyme reaction (18 μ L) was split into two equal parts. One part was treated with MBP-MroD such that the final concentration of MBP-MroD is 3 μM, and the other part was added the same volume but with buffer lacking MBP-MroD (50 mM HEPES, 300 mM NaCl, 2.5% glycerol, 0.5 mM TCEP).The reaction further proceeded for 1.5 h at room temperature. All reaction mixture was then desalted with solid- phase extraction using Ziptip with 0.6 μL C18 resin (EMD Milli por e ) and crystallized on an MTP384 steel target plate using either sa t ur at e d sina pi c ac i d or 50 mg/mL Super DHB [ dissolved in 60% acetonitrile and 0.1% trifluoroacetic acid (TFA )] as the matrix. T he crystallized spots were then analyzed using MALDI-TOF-MS (Bruker Ultraflex). The external standard for MALDI - TOF-MS analysis is ProteoMass Peptide and Protein MALDI -MS Calibration Kit ( Si g ma ) In this work, TEV was used in every variant tested. […]

Chain of MroD (A0A136PPB2 entry or part of it): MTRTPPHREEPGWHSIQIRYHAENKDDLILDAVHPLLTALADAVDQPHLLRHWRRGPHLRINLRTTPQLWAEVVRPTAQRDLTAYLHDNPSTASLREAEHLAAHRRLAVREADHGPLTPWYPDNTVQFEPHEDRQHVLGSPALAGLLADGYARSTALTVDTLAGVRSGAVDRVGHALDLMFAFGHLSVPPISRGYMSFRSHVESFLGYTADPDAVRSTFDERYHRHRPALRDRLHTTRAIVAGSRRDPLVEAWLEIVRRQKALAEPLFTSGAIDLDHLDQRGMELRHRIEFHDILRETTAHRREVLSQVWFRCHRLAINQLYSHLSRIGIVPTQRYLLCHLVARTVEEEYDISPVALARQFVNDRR
Chain of MBP-MroD (A0A136PPB2 1-366): as the sequence (A0A136PPB2 entry or part of it) above

## CC[C@H](C)[C@H](NC(=O)[C@@H](NC(=O)[C@H](Cc1c[nH]c2ccccc12)NC(=O)[C@H](CO)NC(=O)CNC(=O)[C@H](CC(C)C)NC(=O)[C@H](Cc1c[nH]c2ccccc12)NC(=O)CNC(=O)[C@H](CO)NC(=O)[C@H](C)NC(=O)CNC(=O)[C@@H](NC(=O)[C@H](CCC(=O)O)NC(=O)[C@@H](NC(=O)[C@H](CC(N)=O)NC(=O)CNC(=O)[C@H](CC(C)C)NC(=O)CNC(=O)CNC(=O)[C@@H](NC(=O)[C@H](CO)NC(=O)[C@H](CC(C)C)NC(=O)[C@H](C)NC(=O)[C@H](C)NC(=O)[C@H](CC(C)C)NC(=O)[C@H](CCC(=O)O)NC(=O)[C@H](CCC(=O)O)NC(=O)[C@H](CC(=O)O)NC(=O)[C@@H](NC(=O)[C@H](C)NC(=O)[C@H](CC(C)C)NC(=O)[C@H](CC(=O)O)NC(=O)[C@H](CC(C)C)NC(=O)[C@H](CC(=O)O)NC(=O)[C@@H](NC(=O)[C@@H](NC(=O)[C@H](CC(=O)O)NC(=O)[C@H](CC(C)C)NC(=O)[C@H](CC(=O)O)NC(=O)[C@H](CO)NC(=O)c1ccc2c(c1)C(=O)OC21c2ccc(O)cc2Oc2cc(O)ccc21)[C@@H](C)CC)C(C)C)C(C)C)C(C)C)[C@@H](C)O)C(C)C)C(C)C)C(=O)O [fluorescein-Δ12MroA1] (5FAM-SDLDIVDLDLAVDEELAALSVGGLGNTEVGASGWLGSWVI-OH)
MBP-MroD
  Kd: ~12 nM

## CC[C@H](C)[C@H](NC(=O)[C@H](CC(=O)O)NC(=O)[C@H](CC(C)C)NC(=O)[C@H](CC(=O)O)NC(=O)[C@@H](N)CO)C(=O)N[C@H](C(=O)N[C@@H](CC(=O)O)C(=O)N[C@@H](CC(C)C)C(=O)N[C@@H](CC(=O)O)C(=O)N[C@@H](CC(C)C)C(=O)N[C@@H](C)C(=O)N[C@H](C(=O)N[C@@H](CC(=O)O)C(=O)N[C@@H](CCC(=O)O)C(=O)N[C@@H](CCC(=O)O)C(=O)N[C@@H](CC(C)C)C(=O)N[C@@H](C)C(=O)N[C@@H](C)C(=O)N[C@@H](CC(C)C)C(=O)N[C@@H](CO)C(=O)N[C@H](C(=O)NCC(=O)NCC(=O)N[C@@H](CC(C)C)C(=O)NCC(=O)N[C@@H](CC(N)=O)C(=O)N[C@H](C(=O)N[C@@H](CCC(=O)O)C(=O)N[C@H](C(=O)NCC(=O)N[C@@H](C)C(=O)N[C@@H](CO)C(=O)NCC(=O)N[C@@H](Cc1c[nH]c2ccccc12)C(=O)N[C@@H](CC(C)C)C(=O)NCC(=O)N[C@@H](CO)C(=O)N[C@@H](Cc1c[nH]c2ccccc12)C(=O)N[C@H](C(=O)N[C@H](C(=O)OC)[C@@H](C)CC)C(C)C)C(C)C)[C@@H](C)O)C(C)C)C(C)C)C(C)C [Δ12MroA1-COOMe] (H-SDLDIVDLDLAVDEELAALSVGGLGNTEVGASGWLGSWVI-OMe)
MroB
  IC50: 4200 ± 1700 nM
MroD
  IC50: 400 ± 60 nM

## SDLDIVDLDLAVDEELAALSVGGLGNTEVGA [Δ12MroA1 leader]
MroD
  IC50: 16000 ± 4400 nM

## SDLDIVDLDLAVDEELAALSVGGLGNTEVGASGWLGSGVI [Δ12MroA1-W7G]
MroD
  IC50: 2400 ± 300 nM

## SDLDIVDLDLAVDEELAALSVGGLGNTEVGASGWLGSWGI [Δ12MroA1-V8G]
MroD
  IC50: 1700 ± 400 nM

## SDLDIVDLDLAVDEELAALSVGGLGNTEVGASGWLGSWVG [Δ12MroA1-I9G]
MroD
  IC50: 910 ± 90 nM

## SDLDIVDLDLAVDEELAALSVGGLGNTEVGASGWLGSWVI [Δ12MroA1]
MroD
  IC50: 90 ± 20 nM

## SGDAMRWRSWLI [53-A8R, Arg variant of multi-site variant 53]
MroB/C
  Dha formation: 2 Dha

## SGGYRPRSWLI [38-H7R, Arg variant of multi-site variant 38]
MroB/C
  Dha formation: 2 Dha

## SGHYKPQRSWLI [55-A8R, Arg variant of multi-site variant 55]
MroB/C
  Dha formation: 2 Dha

## SGIAKEVRSWLI [47-Q8R, Arg variant of multi-site variant 47]
MroB/C
  Dha formation: 2 Dha

## SGKALERSWLI [29-F7R, Arg variant of multi-site variant 29]
MroB/C
  Dha formation: M ix of 1, 2 Dha

## SGLQHGKRSWLI [52-Y8R, Arg variant of multi-site variant 52]
MroB/C
  Dha formation: 2 Dha

## SGQGRNRSWLI [24-V7R, Arg variant of multi-site variant 24]
MroB/C
  Dha formation: 2 Dha

## SGREFARSWLI [35-N7R, Arg variant of multi-site variant 35]
MroB/C
  Dha formation: 2 Dha

## SGRYAGRSWLI [39-W7R, Arg variant of multi-site variant 39]
MroB/C
  Dha formation: 2 Dha

## SGYDRQRSWLI [56-Y7R, Arg variant of multi-site variant 56]
MroB/C
  Dha formation: 2 Dha

## SGYHFHNRSWLI [54-V8R, Arg variant of multi-site variant 54]
MroB/C
  Dha formation: 2 Dha
